How the values were obtained:
[1] = target: T1, hSERT (Homo sapiens, UniProt P31645); assay: SERT radioligand binding assay ([125I]RTI-55, HEK-hSERT membranes); details: [125I]RTI-55, 1 hour at room temperature
T1 construct: expressed in transfected cells; host or cells: HEK-293 cells (crude membranes)
Protocol: (§1) NK-1 Binding assay. Crude membrane suspensions were prepared for the NK1 and SERT radioligand binding assays from U373 cells or recombinant HEK-293 cells expressing hSERT, respectively. Cells were harvested from T-175 flasks as follows. The medium is removed from the flasks and the cells rinsed with HBSS without Ca and without Mg. The cells are then incubated for 5-10 minutes in 10 mM Tris-Cl, pH 7.5, 5 mM EDTA before the cells are lifted with a combination of pipetting and scraping, as needed. To prepare membranes, the cell suspension is collected into centrifuge bottles and homogenized for 30 seconds with a Polytron homogenizer. The suspension is centrifuged for 30 min @ 32,000×g, 4° C., then the supernatant is decanted and the pellet resuspended and homogenized in 50 mM Tris-Cl, pH 7.5, 1 mM EDTA for 10 seconds. The suspension is then centrifuged again for 30 min @ 32,000×g, 4° C. The supernatant is decanted and the pellet resuspended in 50 mM Tris-Cl, pH 7.5, 1 mM EDTA and briefly homogenized. A Bradford assay (Bio-rad) is performed and the membrane preparation diluted to 2 mg/ml with 50 mM Tris-Cl, pH 7.5, 1 mM EDTA. Aliquots are prepared, and then frozen and stored at −80° C.
SERT radioligand binding assay. Compounds are dissolved in 100% DMSO at a concentration 100× the desired highest assay concentration, serially diluted 1:3 in 100% DMSO, and 0.4 ul/well of each solution is dispensed to a Nunc polypropylene, round bottom, 384 well plate. 100% inhibition is defined with 0.4 ul/well of 1 mM fluoxetine (Sigma F-132) dissolved in DMSO. 20 ul/well of a 2×HEK-hSERT membrane preparation (15 ug/ml in 50 mM Tris-Cl, pH 7.5, 120 mM NaCl, 5 mM KCl) and 20 ul/well of a 2×radioligand solution (520 pM [^125I]RTI-55 (Perkin-Elmer NEX-272) in 50 mM Tris-Cl, pH 7.5, 120 mM NaCl, 5 mM KCl) are added to each well and the reaction incubated for 1 hour at room temperature. The contents of the assay plate are then transferred to a Millipore MultiscreenHTS GF/B filter plate which has been pretreated with 0.5% PEI for at least one hour. The plate is vacuum filtered and washed with 7 washes of 100 ul/well of 50 mM Tris-Cl, pH 7.5, 120 mM NaCl, 5 mM KCl chilled to 4° C. The filtration and washing is completed in less than 90 s. The plates are air-dried overnight, 12 ul/well of MicroScint scintillation fluid added, and the plates counted in a Trilux.
(§2) Data analysis. The raw data are normalized to percent inhibition using control wells defining 0% (DMSO only) and 100% (selective inhibitor) inhibition which are run on each plate. Each plate is run in triplicate, and the concentration response curve thus generated is fit using the four-parameter dose response equation, Y=Bottom+(Top-Bottom)/(1+10^((LogIC50-X)*HillSlope)) in order to determine the IC50 value for each compound. The radioligand concentration chosen for each assay corresponds to the Kd concentration determined through saturation binding analysis for each assay.

[2] = target: T2, NK-1 (Homo sapiens, UniProt P25103); assay: NK1 radioligand binding assay ([125I]Substance P, U373 cell membranes); details: 1 hour at room temperature
T2 construct: endogenous in cells; host or cells: U373 cells (crude membranes)
T2 sequence (P25103 whole entry): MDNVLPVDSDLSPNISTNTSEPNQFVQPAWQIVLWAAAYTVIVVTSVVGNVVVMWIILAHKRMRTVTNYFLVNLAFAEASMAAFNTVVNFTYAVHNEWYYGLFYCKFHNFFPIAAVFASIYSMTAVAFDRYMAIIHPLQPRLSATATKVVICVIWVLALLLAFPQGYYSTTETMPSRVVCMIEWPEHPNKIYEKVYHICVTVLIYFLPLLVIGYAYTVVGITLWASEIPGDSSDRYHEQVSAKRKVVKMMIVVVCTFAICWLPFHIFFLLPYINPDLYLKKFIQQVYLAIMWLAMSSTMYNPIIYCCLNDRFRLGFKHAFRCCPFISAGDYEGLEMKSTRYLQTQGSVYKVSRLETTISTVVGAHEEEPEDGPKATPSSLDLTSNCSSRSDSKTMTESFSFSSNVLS
Protocol: as §1
NK1 radioligand binding assay. Compounds are dissolved in 100% DMSO at a concentration 100× the desired highest assay concentration, serially diluted 1:3 in 100% DMSO, and 0.6 ul/well of each solution is dispensed to a Nunc polypropylene, round bottom, 384 well plate. 100% inhibition is defined with 0.6 ul/well of 1 mM L-733,060 (Sigma L-137) dissolved in DMSO. 30 ul/well of a 2×U373 membrane preparation (267 ug/ml in 100 mM Tris-Cl, pH 7.5, 6 mM MgCl2, 0.2% (v/v) Sigma mammalian protease inhibitor cocktail (Sigma P-8340), and 4 ug/ml chymostatin, Sigma C-7268) and 30 ul/well of a 2×radioligand solution (400 pM [^125I]Substance P (Perkin Elmer NEX-190) in 1% (w/v) BSA (Sigma A-2153), 0.1 mg/ml bacitracin, Sigma B-0125) are added to the well and the reaction incubated for 1 hour at room temperature. The contents of the assay plate are then transferred to a Millipore MultiscreenHTS GF/B filter plate which has been pretreated with 0.5% PEI for at least one hour. The plate is vacuum filtered and washed with 7 washes of 100 ul/well of 20 mM Tris-Cl, pH 7.5, 0.5% (w/v) BSA chilled to 4° C. The filtration and washing is completed in less than 90 s. The plates are air-dried overnight, 12 ul/well of MicroScint scintillation fluid added, and the plates counted in a Trilux.
as §2

T1 sequence (P31645 whole entry): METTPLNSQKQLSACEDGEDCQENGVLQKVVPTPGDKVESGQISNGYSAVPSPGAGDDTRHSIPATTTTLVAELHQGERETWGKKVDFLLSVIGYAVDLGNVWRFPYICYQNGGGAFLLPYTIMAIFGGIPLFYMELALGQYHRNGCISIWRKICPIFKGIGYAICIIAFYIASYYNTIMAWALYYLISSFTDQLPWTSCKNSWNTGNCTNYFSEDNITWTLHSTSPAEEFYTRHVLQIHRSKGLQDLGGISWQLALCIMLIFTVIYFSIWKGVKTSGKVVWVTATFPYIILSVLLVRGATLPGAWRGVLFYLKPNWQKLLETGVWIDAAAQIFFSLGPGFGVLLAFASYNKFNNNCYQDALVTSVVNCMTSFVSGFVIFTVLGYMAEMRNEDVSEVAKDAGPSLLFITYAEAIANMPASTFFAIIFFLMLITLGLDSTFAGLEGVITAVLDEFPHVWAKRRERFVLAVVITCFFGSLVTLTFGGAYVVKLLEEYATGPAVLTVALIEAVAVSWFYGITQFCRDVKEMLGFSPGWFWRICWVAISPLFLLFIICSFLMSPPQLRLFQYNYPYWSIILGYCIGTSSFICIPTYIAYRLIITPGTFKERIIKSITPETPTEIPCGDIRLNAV

IC50 [1] [nM] | IC50 [2] [nM] | SMILES
> 300 | 0.01 to 100 | CN(C)CCCC1(COCc2cc(C(F)(F)F)cc(C(F)(F)F)c2)OCc2ccccc21 (centres unmarked) [Example 38, 3-(1-((3,5-is(trifluoromethyl)benzyloxy)methyl)-1,3-dihydroisobenzofuran-1-yl)-N,N-dimethylpropan-1-amine]
> 300 | 100 to 300 | NCCC1(COCc2cc(-c3cccc(Cl)c3)cc(C(F)(F)F)c2)OCc2ccccc21 (centres unmarked) [Example 13]
> 300 | 0.01 to 100 | CN(C)CCC1(COCc2cc(-c3ccc(C#N)cc3)cc(C(F)(F)F)c2)OCc2cc(C#N)ccc21 (centres unmarked) [Example 25]
> 300 | 0.01 to 100 | CN(C)CCC1(COCc2cc(Br)cc(C(F)(F)F)c2)OCc2cc(C#N)ccc21 (centres unmarked) [Example 22]
